Measurements published in patent US10766879B2, “Pyrimidine derivatives as kinase inhibitors and their therapeutical applications” (NantBioScience, Inc., priority 2015, dated 2020).

Experiments:
[1] = target: T1, Tie2 (Homo sapiens, UniProt Q02763); experiment: KinaseProfiler kinase inhibition assay, Tie2; assay type: biochemical; settings: 1 μM compound
T1 construct: purchased Millipore (KinaseProfiler Service)

[2] = system: RT112; experiment: CellTiterblue viability, 72 hr, RT112; assay type: cell-based; settings: Homo sapiens, RT-112, RT112 cells
Description: (§1) A number of studies were performed to analyze the consequences of tyrosine kinase inhibition in cell lines. To do this, 1000 cells are seeded in 27 μl/well in 384-well microplates, which are then placed in a humidified CO2 incubator at 37° C. overnight. The next day, 3 μl/well of 10× concentrated drug is added and the plates are returned to the incubator for 72 hr. After 72 hr incubation, plates are removed and […] CellTiterblue (Promega) viability reagent is added. Plates are returned to the incubator for 3 hr, after which it is fluorescence measurements are read on the Victor X3 plate reader (Perkin Elmer). Data are analyzed using Excel (Microsoft), and GI50 values are determined using Prism (Graphpad).

[3] = system: AN3_CA; experiment: CellTiterblue viability, 72 hr, AN3_CA; assay type: cell-based; settings: Homo sapiens, AN3-CA, AN3_CA cells
Description: as §1

[4] = system: MDA-MB134; experiment: CellTiterblue viability, 72 hr, MDA-MB134; assay type: cell-based; settings: MDA-MB134 cells
Description: as §1

[5] = target: T2, FGFR1 kinase (Homo sapiens, UniProt P11362); experiment: KinaseProfiler kinase inhibition assay, FGFR1; assay type: biochemical; settings: 1 μM compound
T2 construct: purchased Millipore (KinaseProfiler Service)

[6] = system: KG1a; experiment: CellTiterblue viability, 72 hr, KG1a; assay type: cell-based; settings: Homo sapiens, KG-1a, KG1a cells
Description: as §1

[7] = target: T3, Abl kinase (Homo sapiens, UniProt P00519); experiment: KinaseProfiler kinase inhibition assay, Abl; assay type: biochemical; settings: 1 μM compound
T3 construct: purchased Millipore (KinaseProfiler Service)

[8] = target: T4, Ret kinase (Homo sapiens, UniProt P07949); experiment: KinaseProfiler kinase inhibition assay, Ret; assay type: biochemical; settings: 1 μM compound
T4 construct: purchased Millipore (KinaseProfiler Service)

[9] = system: Kato III; experiment: CellTiterblue viability, 72 hr, Kato III; assay type: cell-based; settings: Homo sapiens, Kato III cells
Description: as §1

[10] = target: T5, c-Src kinase (Homo sapiens, UniProt P12931); experiment: KinaseProfiler kinase inhibition assay, c-Src; assay type: biochemical; settings: 1 μM compound; read-out: % Inhibition @1 μM cSrc
T5 construct: purchased Millipore (KinaseProfiler Service)

[11] = target: T6, KDR kinase (Homo sapiens, UniProt P35968); experiment: KinaseProfiler kinase inhibition assay, KDR; assay type: biochemical; settings: 1 μM compound
T6 construct: purchased Millipore (KinaseProfiler Service)

[12] = target: T7, Alk kinase (Homo sapiens, UniProt Q9UM73); experiment: KinaseProfiler kinase inhibition assay, Alk; assay type: biochemical; settings: 1 μM compound
T7 construct: purchased Millipore (KinaseProfiler Service)

T4 sequence (P07949 29-1114): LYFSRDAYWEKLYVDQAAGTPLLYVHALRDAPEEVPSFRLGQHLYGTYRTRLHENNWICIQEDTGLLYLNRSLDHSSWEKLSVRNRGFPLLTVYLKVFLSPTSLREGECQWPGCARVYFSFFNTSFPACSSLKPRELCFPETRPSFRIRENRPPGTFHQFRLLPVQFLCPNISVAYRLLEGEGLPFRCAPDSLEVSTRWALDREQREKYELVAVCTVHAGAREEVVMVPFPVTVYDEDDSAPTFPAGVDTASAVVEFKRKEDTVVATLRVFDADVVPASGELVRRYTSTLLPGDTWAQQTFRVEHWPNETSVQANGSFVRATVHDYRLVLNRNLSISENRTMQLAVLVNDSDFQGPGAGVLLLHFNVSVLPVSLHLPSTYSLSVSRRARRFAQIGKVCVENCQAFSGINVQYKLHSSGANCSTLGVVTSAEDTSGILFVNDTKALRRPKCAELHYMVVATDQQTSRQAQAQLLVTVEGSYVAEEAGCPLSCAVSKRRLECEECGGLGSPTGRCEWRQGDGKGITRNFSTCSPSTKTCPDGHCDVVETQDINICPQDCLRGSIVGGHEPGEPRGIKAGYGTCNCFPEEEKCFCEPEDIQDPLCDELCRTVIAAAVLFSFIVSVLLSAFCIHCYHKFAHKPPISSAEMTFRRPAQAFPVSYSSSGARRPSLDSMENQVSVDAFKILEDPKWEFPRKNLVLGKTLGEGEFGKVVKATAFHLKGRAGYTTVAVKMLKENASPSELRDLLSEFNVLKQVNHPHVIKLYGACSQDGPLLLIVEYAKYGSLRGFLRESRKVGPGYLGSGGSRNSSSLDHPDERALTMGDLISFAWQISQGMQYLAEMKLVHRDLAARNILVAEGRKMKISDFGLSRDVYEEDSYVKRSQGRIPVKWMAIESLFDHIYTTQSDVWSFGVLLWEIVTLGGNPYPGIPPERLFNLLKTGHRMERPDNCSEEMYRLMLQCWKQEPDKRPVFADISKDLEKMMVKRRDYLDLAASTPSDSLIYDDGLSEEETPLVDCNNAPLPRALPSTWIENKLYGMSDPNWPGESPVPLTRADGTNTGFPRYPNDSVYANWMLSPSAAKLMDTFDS
T2 sequence (P11362 22-822): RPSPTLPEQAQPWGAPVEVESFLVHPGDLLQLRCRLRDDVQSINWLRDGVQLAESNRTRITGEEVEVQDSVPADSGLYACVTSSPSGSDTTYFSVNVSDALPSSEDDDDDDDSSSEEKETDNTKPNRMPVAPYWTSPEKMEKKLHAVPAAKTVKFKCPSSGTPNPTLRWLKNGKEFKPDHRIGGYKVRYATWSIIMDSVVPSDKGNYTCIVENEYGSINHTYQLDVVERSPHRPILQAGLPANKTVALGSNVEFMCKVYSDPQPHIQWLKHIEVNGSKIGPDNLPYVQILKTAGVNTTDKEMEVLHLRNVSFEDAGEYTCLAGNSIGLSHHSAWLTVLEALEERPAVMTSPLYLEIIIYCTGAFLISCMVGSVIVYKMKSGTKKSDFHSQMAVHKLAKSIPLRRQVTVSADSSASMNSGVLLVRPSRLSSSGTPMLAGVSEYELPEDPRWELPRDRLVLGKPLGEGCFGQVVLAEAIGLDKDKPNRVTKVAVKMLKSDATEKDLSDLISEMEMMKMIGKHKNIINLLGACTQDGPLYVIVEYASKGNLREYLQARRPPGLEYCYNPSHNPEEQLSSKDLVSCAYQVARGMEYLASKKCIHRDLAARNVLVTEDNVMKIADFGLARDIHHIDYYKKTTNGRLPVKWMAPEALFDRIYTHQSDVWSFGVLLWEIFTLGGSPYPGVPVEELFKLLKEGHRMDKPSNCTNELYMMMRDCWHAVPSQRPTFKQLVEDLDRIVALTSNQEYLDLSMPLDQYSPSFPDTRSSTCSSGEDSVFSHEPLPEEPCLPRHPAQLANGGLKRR
T1 sequence (Q02763 23-1124): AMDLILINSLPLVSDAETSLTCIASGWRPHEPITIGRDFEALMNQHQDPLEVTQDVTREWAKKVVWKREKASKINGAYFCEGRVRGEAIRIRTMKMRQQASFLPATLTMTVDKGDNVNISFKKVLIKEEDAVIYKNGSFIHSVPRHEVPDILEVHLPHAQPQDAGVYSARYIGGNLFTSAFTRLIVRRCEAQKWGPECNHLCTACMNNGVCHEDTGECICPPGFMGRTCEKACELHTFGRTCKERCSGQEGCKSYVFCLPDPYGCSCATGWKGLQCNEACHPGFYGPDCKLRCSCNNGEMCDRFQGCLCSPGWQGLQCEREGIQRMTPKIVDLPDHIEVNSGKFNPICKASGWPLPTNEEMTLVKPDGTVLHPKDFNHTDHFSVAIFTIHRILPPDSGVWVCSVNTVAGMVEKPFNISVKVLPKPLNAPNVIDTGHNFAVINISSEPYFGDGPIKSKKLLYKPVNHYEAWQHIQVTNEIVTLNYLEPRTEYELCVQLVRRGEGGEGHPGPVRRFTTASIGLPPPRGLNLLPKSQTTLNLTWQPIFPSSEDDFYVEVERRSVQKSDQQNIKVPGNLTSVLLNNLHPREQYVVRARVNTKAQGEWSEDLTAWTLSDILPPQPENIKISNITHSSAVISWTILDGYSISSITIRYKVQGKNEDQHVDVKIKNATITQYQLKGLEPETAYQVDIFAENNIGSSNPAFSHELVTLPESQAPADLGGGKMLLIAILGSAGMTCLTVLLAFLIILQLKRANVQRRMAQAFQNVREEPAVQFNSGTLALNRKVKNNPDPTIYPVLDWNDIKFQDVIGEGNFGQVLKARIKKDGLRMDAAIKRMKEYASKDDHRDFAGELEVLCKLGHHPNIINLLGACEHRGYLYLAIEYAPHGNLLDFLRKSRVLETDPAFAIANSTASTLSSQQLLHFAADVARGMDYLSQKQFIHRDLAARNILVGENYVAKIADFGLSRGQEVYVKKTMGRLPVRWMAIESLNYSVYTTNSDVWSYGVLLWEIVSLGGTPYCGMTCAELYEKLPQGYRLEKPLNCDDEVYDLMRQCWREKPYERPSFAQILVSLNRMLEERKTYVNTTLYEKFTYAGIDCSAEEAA
T3 sequence (P00519 whole entry): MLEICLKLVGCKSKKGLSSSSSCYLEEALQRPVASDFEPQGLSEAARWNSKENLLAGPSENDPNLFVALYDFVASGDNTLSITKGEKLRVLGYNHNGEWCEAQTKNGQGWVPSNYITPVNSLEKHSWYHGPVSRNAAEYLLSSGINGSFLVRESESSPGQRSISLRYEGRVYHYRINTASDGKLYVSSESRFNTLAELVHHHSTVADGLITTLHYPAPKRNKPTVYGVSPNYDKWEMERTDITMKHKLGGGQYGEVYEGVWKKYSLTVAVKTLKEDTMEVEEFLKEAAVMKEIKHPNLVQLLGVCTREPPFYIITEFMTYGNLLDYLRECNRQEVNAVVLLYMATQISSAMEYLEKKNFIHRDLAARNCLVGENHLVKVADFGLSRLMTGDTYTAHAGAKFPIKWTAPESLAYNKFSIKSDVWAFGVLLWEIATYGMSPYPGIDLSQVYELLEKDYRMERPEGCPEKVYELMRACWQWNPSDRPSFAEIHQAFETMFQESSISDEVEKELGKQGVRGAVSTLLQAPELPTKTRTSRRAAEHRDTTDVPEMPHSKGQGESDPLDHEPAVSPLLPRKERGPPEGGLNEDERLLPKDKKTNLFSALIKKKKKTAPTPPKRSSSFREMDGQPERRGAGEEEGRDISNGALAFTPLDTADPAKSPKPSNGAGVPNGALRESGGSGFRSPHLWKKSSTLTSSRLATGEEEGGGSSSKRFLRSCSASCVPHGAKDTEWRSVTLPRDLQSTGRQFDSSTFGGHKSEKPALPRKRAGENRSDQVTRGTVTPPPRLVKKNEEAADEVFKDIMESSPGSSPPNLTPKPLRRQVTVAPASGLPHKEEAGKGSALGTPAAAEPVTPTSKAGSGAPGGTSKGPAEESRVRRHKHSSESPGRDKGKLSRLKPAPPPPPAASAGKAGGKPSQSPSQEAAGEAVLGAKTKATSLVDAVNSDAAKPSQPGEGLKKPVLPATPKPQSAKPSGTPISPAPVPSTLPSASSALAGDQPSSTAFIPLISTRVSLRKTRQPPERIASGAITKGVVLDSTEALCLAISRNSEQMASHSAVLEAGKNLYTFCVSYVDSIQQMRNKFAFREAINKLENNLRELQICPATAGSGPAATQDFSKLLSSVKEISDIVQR
T5 sequence (P12931 whole entry): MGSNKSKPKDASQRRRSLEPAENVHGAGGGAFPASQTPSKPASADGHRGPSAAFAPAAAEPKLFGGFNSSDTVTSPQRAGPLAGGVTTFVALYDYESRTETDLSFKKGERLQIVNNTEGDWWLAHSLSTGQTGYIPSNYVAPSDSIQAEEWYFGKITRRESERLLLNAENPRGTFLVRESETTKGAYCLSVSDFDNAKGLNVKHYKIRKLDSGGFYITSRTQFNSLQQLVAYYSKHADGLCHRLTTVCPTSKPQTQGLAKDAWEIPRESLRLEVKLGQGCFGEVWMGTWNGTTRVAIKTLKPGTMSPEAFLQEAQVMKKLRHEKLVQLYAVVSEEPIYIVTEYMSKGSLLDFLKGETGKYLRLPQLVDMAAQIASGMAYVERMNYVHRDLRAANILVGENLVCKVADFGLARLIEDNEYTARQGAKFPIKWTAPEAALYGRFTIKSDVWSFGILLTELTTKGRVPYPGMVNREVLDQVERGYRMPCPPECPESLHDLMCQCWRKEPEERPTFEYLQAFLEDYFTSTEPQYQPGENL

| SMILES | inhibition at 1 µM [1] [%] | GI50 [2] [nM] | GI50 [3] [nM] | GI50 [4] [nM] | inhibition at 1 µM [5] [%] | GI50 [6] [nM] | inhibition at 1 µM [7] [%] | inhibition at 1 µM [8] [%] | GI50 [9] [nM] | inhibition at 1 µM [10] [%] | inhibition at 1 µM [11] [%] | inhibition at 1 µM [12] [%] |
| --- | --- | --- | --- | --- | --- | --- | --- | --- | --- | --- | --- | --- |
| Cc1cc2c(F)c(Oc3ncnc(Nc4ccc(N5CCN(C)CC5)cc4)c3Cl)ccc2[nH]1 [Compound 35, 5-chloro-6-((4-fluoro-2-methyl-1H-indol-5-yl)oxy)-N-(4-(4-methylpiperazin-1-yl)phenyl)pyrimidin-4-amine] | 19 | > 500 | > 500 | > 500 | 96 | > 500 | -15 | -22 | > 500 | 2 | 20 | -43 |
| Cc1cc2c(F)c(Oc3ncnc(Nc4ccc(N5CCN(C)CC5)cc4)c3C)ccc2[nH]1 [Compound 40] | 13 | > 500 | > 500 | 430 | 91 | > 500 | 2 | -46 | > 500 | -2 | 12 | -23 |
| Cc1cc2c(F)c(Oc3ncnc(Nc4ccc(N5CCN(C)CC5)cn4)c3C)ccc2[nH]1 [Compound 41] | 12 | > 500 | > 500 | 241 | 41 | > 500 | 2 | -35 | > 500 | 8 | 5 | -41 |
| COc1c(Nc2ccc(N3CCN(C)CC3)cc2)ncnc1Oc1ccc2[nH]c(C)cc2c1F [Compound 43] | 21 | > 500 | > 500 | > 500 | 48 | > 500 | -10 | -28 | > 500 | -4 | -7 | -32 |
| COc1c(Nc2ccc(N3CCN(C)CC3)cn2)ncnc1Oc1ccc2[nH]c(C)cc2c1F [Compound 44] | 11 | > 500 | > 500 | > 500 | 16 | > 500 | -6 | -12 | > 500 | -11 | -1 | -18 |
| Cc1cc2c(F)c(Oc3ncnc(Nc4ccc(N5CCN(C)CC5)cc4)c3N)ccc2[nH]1 [Compound 46] | 14 | > 500 | > 500 | 254 | 54 | > 500 | -13 | -43 | > 500 | 12 | 5 | -34 |
| Cc1cc2c(F)c(Oc3ncnc(Nc4ccc(N5CCN(C)CC5)cn4)c3N)ccc2[nH]1 [Compound 47] | 11 | > 500 | > 500 | > 500 | 34 | > 500 | -6 | -30 | > 500 | -6 | 1 | -31 |
| CC(=O)N1CCN(c2ccc(Nc3cc(Oc4cc(F)c5[nH]c(C)cc5c4F)ncn3)cc2)CC1 [Compound 50] | 48 |  | > 500 |  | 89 |  | 36 | 36 | 348 | 58 | 97 | 63 |
| Cc1cc2c(F)c(Oc3cc(Nc4cc(-c5ccccc5)[nH]n4)ncn3)ccc2[nH]1 [Example 4] | 30 |  | > 500 |  | 59 |  | 23 | 27 |  | 36 | 98 | 53 |
| CC(=O)Nc1ccc(Nc2cc(Oc3ccc4[nH]c(C)cc4c3F)ncn2)cc1 [Example 7] | 4 |  | > 500 |  | 96 |  | 8 | -16 | > 500 | 14 | 98 | 61 |
| Cc1cc2c(F)c(Oc3cc(Nc4cccc(N5CCOCC5)c4)ncn3)ccc2[nH]1 [Example 8] | 2 |  | > 500 |  | 97 |  | 11 | 22 | > 500 | 15 | 98 | 60 |
| Cc1cc2c(F)c(Oc3cc(Nc4ccc(N5CCOCC5)cc4)ncn3)ccc2[nH]1 [Example 9] | 24 |  | > 500 |  | 75 |  | 21 | 35 | > 500 | 20 | 96 | 70 |
| CNC(=O)c1ccc(Nc2cc(Oc3ccc4[nH]c(C)cc4c3F)ncn2)cc1 [Example 12] | 20 |  | > 500 |  | 89 |  | 18 | 21 | > 500 | 30 | 98 | 60 |
| Cc1cc2c(F)c(Oc3cc(Nc4cccc(N5CCN(C)CC5)c4)ncn3)ccc2[nH]1 [Example 13] | 70 |  | > 500 |  | 98 |  | 41 | 61 | 170 | 32 | 98 | 60 |
| Cc1cc2c(F)c(Oc3cc(Nc4ccccn4)ncn3)ccc2[nH]1 [Example 18] | 48 |  | > 500 |  | 87 |  | 45 | 68 |  | 21 | 92 | 15 |
| CCOC(=O)c1cc(Nc2cc(Oc3ccc4[nH]c(C)cc4c3F)ncn2)n[nH]1 [Example 19] | 13 |  | > 500 |  | 59 |  | 18 | 48 |  | 8 | 89 | -5 |
| Cc1cc2c(F)c(Oc3ncnc(Nc4ccc(N5CCN(C)CC5)cc4)c3F)ccc2[nH]1 [Example 24] | -6 |  | > 500 |  | 97 |  | 0 | -12 | 386 | 11 | 96 | 38 |
| CC(=O)N1CCN(c2ccc(Nc3ncnc(Oc4ccc5[nH]c(C)cc5c4F)c3F)cc2)CC1 [Example 26] | -11 |  | > 500 |  | 46 |  | 7 | -17 | > 500 | 16 | 96 | 68 |
| Cc1cc2c(F)c(Oc3ncnc(Nc4ccc(N5CCN(C)CC5)cn4)c3F)ccc2[nH]1 [Example 27] | -2 |  | > 500 |  | 85 |  | 4 | -46 | > 500 | 11 | 79 | 35 |
| Cc1cc2c(F)c(Oc3ncnc(Nc4ccc(N5CCNCC5)cc4)c3F)ccc2[nH]1 [Example 28] | -7 |  | > 500 |  | 96 |  | 12 | -15 | > 500 | 17 | 97 | 62 |
| CCN1CCN(c2ccc(Nc3ncnc(Oc4ccc5[nH]c(C)cc5c4F)c3F)nc2)CC1 [Example 29, N-(5-(4-ethylpiperazin-1-yl)pyridin-2-yl)-5-fluoro-6-((4-fluoro-2-methyl-1H-indol-5-yl)oxy)pyrimidin-4-amine] | 33 |  | > 500 | > 500 | 92 |  | -7 | -29 | > 500 | 15 | 70 | -48 |
